Patent US20250114472A1, “CONJUGATE AND USE THEREOF” (BEIJING CHEMPION BIOTECHNOLOGY CO., LTD., priority 2022, published 2025)
Where a SMILES comes first, the peptide text is derived from it. [ ]: non-standard residue; d: D form. The star is where a group is joined. Dolaproine = CO[C@@H]([C@@H]1CCCN1)[C@@H](C)C(=O)O; Dil = CC[C@H](C)[C@H](NC)[C@@H](CC(=O)O)OC; X1 = C[C@@H](N*)[C@@H](O)c1ccccc1; NMeV = CN[C@H](C(=O)O)C(C)C

Tested on: NCI-N87 cells
Test: Cytotoxicity assay (Cell Titer Glo cell viability)
Type: cell-based
Details: 144 hours, CTG
Description: Cell viability assay was used to detect the cytotoxicity of an ADC antibody on NCI-N87 cells. This method can quantitatively analyze and specifically detect the cytotoxicity of an ADC antibody on NCI-N87 cells. Cells cultured without addition of ADC antibody were used as a blank control to determine the threshold of the cell viability detection. A signal below this threshold was considered as a specific signal generated after the ADC antibody killed cells. NCI-N87 cells (5×10^3 cells/well) were resuspended in a RPMI1640 medium containing 15% FBS and inoculated into a black 96-well plate with transparent bottom in a volume of 50 μL. The 96-well plate was placed in an incubator set at 37° C. and 5% CO2 overnight. After the overnight incubation, 50 μL of different concentrations of ADC antibodies or MMAE (starting from 400 nM, 4-fold serial dilution) were added to the 96-well plate (making the total volume to 100 μL/well), and the 96-well plate was placed in an incubator set at 37° C. and 5% CO2 for 144 hours. Cell Titer Glo (50 μL/well) was added to each well and the mixture was thoroughly mixed. The luciferase intensity was read using Envision. The cytotoxic effect was calculated using the following formula: cytotoxicity %=100* (RFUcell only−RFUsample)/RFUcell only. The IC50 value was calculated by four-parameter nonlinear regression analysis using GraphPad Prism 7 software.

In the case of CC[C@H](C)[C@@H]([C@@H](CC(=O)N1CCC[C@H]1[C@H](OC)[C@@H](C)C(=O)N[C@H](C)[C@@H](O)c1ccccc1)OC)N(C)C(=O)[C@@H](NC(=O)[C@@H](NC)C(C)C)C(C)C [MMAE, monomethyl auristatin E] (H-[NMeV]V[Dil][Dolaproine]-X1), the “Max Inh %” value (from 400 nM) is reported as 90.41% and the IC50 (Homo sapiens) is reported as 0.12 nM.
